Laboratory results reported in ChEMBL document CHEMBL1201861, “Genomics of Drug Sensitity in Cancer screening data, Wellcome Trust Sanger Institute”.

Legend:
NCI-H1436 = experiment: cells; assay type: functional, cell-based, Homo sapiens; settings: Homo sapiens, NCI-H1436;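 further: growth suppression of human NCI-H1436 cells, determined with a cell viability readout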
Description: SANGER: Inhibition of human NCI-H1436 cell growth in a cell viability assay.

BC1 cell line = experiment: SANGER: Inhibition of human BC-1 cell growth in a cell viability assay.; assay type: functional, cell-based; settings: Homo sapiens, BC1
KARPAS-422 = experiment: cells; assay type: functional, cell-based, Homo sapiens; settings: Homo sapiens, KARPAS-422
Description: SANGER: Inhibition of human KARPAS-422 cell growth in a cell viability assay.

NB14 = experiment: cells; assay type: functional, cell-based, Homo sapiens; settings: Homo sapiens, NB14;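 further: growth inhibition of NB14 cells measured with a cell viability assay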
Description: SANGER: Inhibition of human NB14 cell growth in a cell viability assay.

NCI-H1694 = experiment: cells; assay type: functional, cell-based, Homo sapiens; settings: Homo sapiens, NCI-H1694;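 further: cell viability assay measuring inhibition of growth in human NCI-H1694 cells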
Description: SANGER: Inhibition of human NCI-H1694 cell growth in a cell viability assay.

DG-75 = experiment: cells; assay type: functional, cell-based, Homo sapiens; settings: Homo sapiens, DG-75;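 further: growth inhibition of DG-75 cells, read out with a cell viability assay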
Description: SANGER: Inhibition of human DG-75 cell growth in a cell viability assay.

LOUCY = experiment: cells; assay type: functional, cell-based, Homo sapiens; settings: Homo sapiens, LOUCY;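 further: growth inhibition of human LOUCY cells, read out with a cell viability assay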
Description: SANGER: Inhibition of human LOUCY cell growth in a cell viability assay.

SNU-16 = experiment: cells; assay type: functional, cell-based, Homo sapiens; settings: Homo sapiens, SNU-16;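 further: growth inhibition of human SNU-16 cells, determined with a cell viability readout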
Description: SANGER: Inhibition of human NCI-SNU-16 cell growth in a cell viability assay.

Compound `COc1cc(-c2nn([C@H]3CC[C@H](N4CCN(C(C)=O)CC4)CC3)c3ncnc(N)c23)ccc1NC(=O)c1cc2ccccc2n1C` has an IC50 (NCI-H1436) of 3.19 µM, an IC50 (BC1 cell line) greater than 5.12 µM and an IC50 (KARPAS-422) greater than 5.12 µM. The IC50 (NB14) was greater than 5.12 µM, the IC50 (NCI-H1694) was greater than 5.12 µM and the IC50 (DG-75) was greater than 5.12 µM. The IC50 (LOUCY) was greater than 5.12 µM and the IC50 (SNU-16) was greater than 5.12 µM.
With `OCCCNc1cc(-c2ccnc(Nc3cccc(Cl)c3)n2)ccn1` the IC50 (NCI-H1436) was 0.251 µM, the IC50 (BC1 cell line) was 0.0695 µM and the IC50 (KARPAS-422) was 0.0572 µM. It also gave an IC50 (NB14) greater than 0.256 µM, an IC50 (NCI-H1694) greater than 0.256 µM and an IC50 (DG-75) of 0.111 µM. The IC50 (LOUCY) was 0.0622 µM and the IC50 (SNU-16) was 0.136 µM.
Compound `COc1cc(N2CCN(C)CC2)ccc1Nc1ncc2c(n1)N(C)c1ccccc1C(=O)N2C` has an IC50 (NCI-H1436) greater than 8 µM, an IC50 (BC1 cell line) greater than 8 µM and an IC50 (KARPAS-422) greater than 8 µM. For the same compound, the IC50 (NB14) was greater than 8 µM, the IC50 (NCI-H1694) was greater than 8 µM and the IC50 (DG-75) was 5.61 µM. It also gave an IC50 (LOUCY) greater than 8 µM and an IC50 (SNU-16) greater than 8 µM.
`CC[C@H](CO)Nc1nc(NCc2ccccc2)c2ncn(C(C)C)c2n1` [SELICICLIB] was tested, and the IC50 (NCI-H1436) was greater than 16 µM, the IC50 (BC1 cell line) was greater than 16 µM and the IC50 (KARPAS-422) was 9.96 µM. For the same compound, the IC50 (NB14) was greater than 16 µM, the IC50 (NCI-H1694) was greater than 16 µM and the IC50 (DG-75) was greater than 16 µM. It also gave an IC50 (LOUCY) greater than 16 µM and an IC50 (SNU-16) greater than 16 µM.
`CC(=O)O[C@H]1C(=O)[C@@]2(C)[C@H]([C@H](OC(=O)c3ccccc3)[C@]3(O)C[C@H](OC(=O)[C@H](O)[C@@H](NC(=O)c4ccccc4)c4ccccc4)C(C)=C1C3(C)C)[C@]1(OC(C)=O)CO[C@@H]1C[C@@H]2O` [PACLITAXEL] showed an IC50 (NCI-H1436) of 0.0123 µM, an IC50 (BC1 cell line) greater than 0.102 µM and an IC50 (KARPAS-422) of 0.0565 µM. For the same compound, the IC50 (NB14) was greater than 0.102 µM, the IC50 (NCI-H1694) was greater than 0.102 µM and the IC50 (DG-75) was 0.069 µM. It also gave an IC50 (LOUCY) of 0.00775 µM and an IC50 (SNU-16) of 0.0101 µM.
With `N[C@@H](CSC(c1ccccc1)(c1ccccc1)c1ccccc1)C(=O)O` [S-TRITYL-L-CYSTEINE] the IC50 (NCI-H1436) was 0.889 µM, the IC50 (BC1 cell line) was greater than 5.12 µM and the IC50 (KARPAS-422) was 1.2 µM. For the same compound, the IC50 (NB14) was greater than 5.12 µM, the IC50 (NCI-H1694) was greater than 5.12 µM and the IC50 (DG-75) was greater than 5.12 µM. For the same compound, the IC50 (LOUCY) was 0.48 µM and the IC50 (SNU-16) was greater than 5.12 µM.
`CCN(CC)CCNC(=O)c1c(C)[nH]c(/C=C2\C(=O)Nc3ccc(F)cc32)c1C` [SUNITINIB] was tested, and the IC50 (NCI-H1436) was greater than 8 µM, the IC50 (BC1 cell line) was 7.25 µM and the IC50 (KARPAS-422) was 7.57 µM. For the same compound, the IC50 (NB14) was greater than 8 µM, the IC50 (NCI-H1694) was greater than 8 µM and the IC50 (DG-75) was 6.43 µM. It also gave an IC50 (LOUCY) greater than 8 µM and an IC50 (SNU-16) of 1.46 µM.
